Experimental data taken from ChEMBL document CHEMBL3797172, “Structure Property Relationships of Carboxylic Acid Isosteres” (J Med Chem, 2016).
Values after ≈ are worked out from the molar mass of the structure shown.

What was measured:
[1] = Effective permeability of compound at pH 7.4 at 200 uM after 5 hrs by PAMPA; type: ADME; conditions: for Papp at 5 h, 200 µM: PAMPA, pH 7.4, read-out: Peff; for Peff: pampa, pH 7.4, 5 h, 200 µM, BLD = below limit of detection
physchem [2] = conditions: aqueous phosphate buffer, pH 7.4
physchem [3] = conditions: 1-octanol/aqueous buffer, pH 7.4
[4] = Percentage unbound in human plasma at 5 uM after 6 hrs by equilibrium dialysis method; type: ADME, cell-free; conditions: for Fu: 6 h, 5 µM
[5] = Effective permeability of compound assessed as membrane retention at pH 7.4 at 200 uM after 5 hrs by PAMPA relative to control; type: ADME; conditions: pH 7.4, 5 h
[6] = Dissociation constant, pKa of the compound at 100 uM by capillary electrophoresis; type: physicochemical; conditions: for pKa: 100 µM
[7] = octanol/water, pH 7.4, 1 h
[8] = Apparent permeability of compound at pH 7.4 at 200 uM by PAMPA; type: physicochemical; conditions: pH 7.4, 200 µM, BLD = below limit of detection
[9] = buffer, pH 7.4, 24 h, 200 µM

| Compound | solubility kinetic at 24 h, 200 µM (physchem [2]) [µM] | R% [5] [%] | Fu [4] [%] | logD [7] | further results |
| --- | --- | --- | --- | --- | --- |
| CC1=C(O)CC(Cc2ccccc2)C1=O (stereo unspecified) | > 200 | -5.1 | – | – | Papp at 5 h, 200 µM [1]: 0.26 ×10⁻⁶ cm/s; logD at 1 h (physchem [3]): -0.33; fraction unbound at 6 h, 5 µM [4]: 0.111; pKa at 100 µM [6]: 4.47 |
| NS(=O)(=O)CCc1ccccc1 | ≥ 200 | 4.2 | 60.72 | 0.96 | – |
| O=S([O-])CCc1ccccc1.[Na+] | ≥ 200 | -6.8 | 5 | -1.3 | Peff [1]: BLD; logPapp [8]: BLD |
| O=[PH](O)CCc1ccccc1 | 128 (≈ 21.7 µg/mL) | -2.1 | 8.86 | – | – |
| O=S(=O)(Cc1ccccc1)c1ccccc1O | 197 (≈ 48.9 µg/mL) | 7.2 | 1.59 | 1.76 | – |
| O=c1c(O)c(NCc2ccccc2)c1=O | ≥ 200 | -6.6 | 6.45 | – | pKa [6]: < 2 |
| O=C1CC(c2ccccc2)C=C1O (stereo unspecified) | 192 (≈ 33.5 µg/mL) | -8.6 | – | 1.71 | – |
| O=P(O)(O)CCc1ccccc1 | 152 (≈ 28.4 µg/mL) | -2.7 | 31 | – | Papp at 5 h, 200 µM [1]: 0.094 ×10⁻⁶ cm/s |
| CS(=O)(=O)NC(=O)NCc1ccccc1 | 198 (≈ 45.1 µg/mL) | 3 | 31 | -1.23 | – |
| O=c1[nH]c(CCc2ccccc2)ns1 | 200 (≈ 41.4 µg/mL) | -0.7 | 1.17 | 1.66 | – |
| O=C1NC(=O)C(Cc2ccccc2)S1 (stereo unspecified) | 200 (≈ 41.5 µg/mL) | 5.5 | 3.4 | 1.07 | – |
| [O-][S+](Cc1ccccc1)c1ccccc1O (stereo unspecified) | ≥ 200 | 1.1 | 12 | 2.16 | – |
| O=S(=O)([O-])CCc1ccccc1.[Na+] | ≥ 200 | -6.1 | 0.31 | -1.45 | pKa [6]: < 2 |
| O=C(O)CCc1ccccc1 | 111 (≈ 16.6 µg/mL) | -7 | 9.5 | – | – |
| CS(=O)(=O)NC(=O)CCc1ccccc1 | 200 (≈ 45.4 µg/mL) | 1.4 | 12.8 | – | – |
| O=C(CCc1ccccc1)NO | ≥ 200 | 0.03 | 29 | 0.71 | – |
| CC(=O)N(O)CCc1ccccc1 | ≥ 200 | 1.1 | 37 | 1.52 | – |
| O=C1C=C(O)CC1Cc1ccccc1 (stereo unspecified) | 195 (≈ 36.7 µg/mL) | -3 | 7.96 | -0.7 | – |

| Compound | solubility kinetic at 24 h, 200 µM (physchem [2]) [µM] | R% [5] [%] | Fu [4] [%] | logD [7] | further results |
| --- | --- | --- | --- | --- | --- |
| O=c1[nH]c(CCc2ccccc2)no1 | ≥ 200 | -4 | 1.1 | 0.32 | – |
| Oc1cc(Cc2ccccc2)on1 | ≥ 200 | -11 | 0.1 | 0.46 | – |
| CN(C)S(=O)(=O)NC(=O)CCc1ccccc1 | 199 (≈ 51 µg/mL) | 2.2 | 8.1 | 0.17 | pKa [6]: 5.86 |
| CC(=O)NC(=O)NCc1ccccc1 | ≥ 200 | -3.3 | 77 | 1.42 | pKa [6]: > 12 |
| O=C1CC(=O)C(Cc2ccccc2)N1 (stereo unspecified) | ≥ 200 | 1.3 | – | -0.35 | Papp at 5 h, 200 µM [1]: 2.5 ×10⁻⁶ cm/s |
| Oc1c(F)ccc(Cc2ccccc2)c1F | 149 (≈ 32.7 µg/mL) | -32 | 0.52 | 3.56 | – |
| CONC(=O)CCc1ccccc1 | ≥ 200 | 5.3 | 68 | 1.16 | – |
| O=C1CCC(Cc2ccccc2)=C1O | 195 (≈ 36.7 µg/mL) | 1.5 | 16 | 1.85 | – |
| Oc1ccccc1SCc1ccccc1 | – | – | – | > 3.78 | Kinetic_solubility [9]: ND(Unstable) |
| CC(=O)NOCCc1ccccc1 | 200 (≈ 35.8 µg/mL) | -2.9 | 64 | 1.18 | Papp at 5 h, 200 µM [1]: 4.6 ×10⁻⁶ cm/s |
| c1ccc(CCc2nnn[nH]2)cc1 | ≥ 200 | 4.7 | 1.12 | -0.25 | – |
| O=C1NC(=O)C(Cc2ccccc2)O1 (stereo unspecified) | ≥ 200 | -0.6 | 14 | -0.16 | – |
| CS(=O)(=O)NCCCc1ccccc1 | ≥ 200 | 8.1 | 37.27 | 1.42 | pKa [6]: > 12 |
| Oc1c(F)cc(Cc2ccccc2)cc1F | 109 (≈ 24 µg/mL) | 49 | 0.26 | 3.34 | – |
| O=C1CCC(O)=C1Cc1ccccc1 | 199 (≈ 37.5 µg/mL) | -8.8 | 14.3 | -0.6 | – |
| O=c1c(O)c(Cc2ccccc2)c1=O | 166 (≈ 31.2 µg/mL) | -13 | 8.19 | -0.84 | Peff [1]: BLD; logPapp [8]: BLD; pKa [6]: < 2 |
| S=c1[nH]c(CCc2ccccc2)no1 | ≥ 200 | -3.4 | 0.65 | -0.25 | – |
